From PMC7144106, “The Evolution of Pleconaril: Modified O-Alkyl Linker Analogs Have Biological Activity towards Coxsackievirus B3 Nancy” (Molecules, 2020)
Where two headings read alike, the source gives them in different places.

How the values were obtained:
Type in all cases: cell-based
in vitro = conditions: for CC50 at 24 h: African green monkey; for CC50 at 72 h: dog
Experimental: The microtetrazolium test (MTT) was used to study the cytotoxicity of the compounds [24]. The experiment was repeated three times. Vero cells were seeded in 96-well plates in Eagles minimal essential medium (MEM) supplemented with 10% FBS. After 24 h, the media was removed, and the wells were washed with saline. Compounds were dissolved in DMSO, and a series of three-fold dilutions of each compound and pleconaril (1000-4 µg/mL) in MEM without FBS were prepared and added to the cells in quadriplicates (200 µL per well). The maximal concentration of DMSO was 0.5% MEM with 0.5% DMSO and was added to cell control wells. Cells were incubated for 24 h at 37 °C in 5% CO2 in the presence of the dissolved compounds. The cells were then washed with saline, and a solution of 3-(4,5-dimethylthiazolyl-2) 2,5-diphenyltetrazolium bromide (ICN Biochemicals Inc., Aurora, OH, USA) (0.5 µg/mL) in MEM was added to the wells (100 µL per well). After 2 h of incubation at 37 °C in 5% CO2, the supernatant from wells was discarded, and the formazan residue was dissolved in DMSO (100 µL per well). The optical density of cells was then measured on a Victor 21,440 multifunctional reader (Perkin Elmer, Turku, Finland) at a wavelength of 535 nm and plotted against the concentration of the compounds to generate the dose–response curve. The 50% cytotoxic dose (CC50) of each compound (i.e., the compound concentration that causes the death of 50% of cells in a culture, or decreases the optical density twice as compared to the control wells) was calculated using four-parameter logistic nonlinear regression model. For some compounds (35a and 35b) cytotoxicity towards MDCK cell line was determined using the procedure above, but the cells were exposed to compounds for 72 h.

[1] = test system: coxsackievirus B3 strain Nancy; assay: Viral yield reduction assay against CVB3 in Vero cells; conditions: for IC50: Vero cells, viral yield reduction, MOI 0.01, 24 h, read-out: IC50 towards CVB3
[2] = test system: influenza virus A/Puerto Rico/8/34 (H1N1); assay: Antiviral activity against IAV, hemagglutination test in MDCK cells; conditions: for IC50: MDCK cells, hemagglutination test, 72 h, read-out: IC50 Towards IAV

Molecule: CCOC(=O)c1cc(CCCSc2ccc(-c3noc(C(F)(F)F)n3)cc2C)on1 [Compound 6a, 3-(3-Methyl-4-((3-(3-carbethoxy-isoxazol-5-yl)propyl)thio)phenyl)-5-(trifluoromethyl)-1,2,4-oxadia-zole]
- CC50 at 24 h (in vitro): 485 ± 20.1 µM
- IC50 ([1]; Enterovirus B): 21 ± 1.5 µM

Molecule: Cc1cc(CCCSc2ccc(-c3noc(C(F)(F)F)n3)cc2C)on1 [Compound 6b, 3-(3-Methyl-4-((3-(3-methylisoxazol-5-yl)propyl)thio)phenyl)-5-(trifluoromethyl)-1,2,4-oxadiazole]
- CC50 at 24 h (in vitro): > 2610 µM
- IC50 ([1]; Enterovirus B): 15.6 ± 1.4 µM

Molecule: Cc1cc(-c2noc(C(F)(F)F)n2)ccc1SCCCc1cc(C(=O)N(C)C)no1 [Compound 7, N,N-dimethyl-5-(3-((2-methyl-4-(5-(trifluoromethyl)-1,2,4-oxadiazol-3-yl)phenyl)thio)propyl)isoxa-zole-3-carboxamide]
- CC50 at 24 h (in vitro): > 2270 µM
- IC50 ([1]; Enterovirus B): 18.6 ± 1.3 µM

Molecule: CCOC(=O)c1cc(CCC(=O)Oc2ccc(-c3noc(C(F)(F)F)n3)cc2C)on1 [Compound 12a, Ethyl 5-(3-(2-methyl-4-(5-(trifluoromethyl)-1,2,4-oxadiazol-3-yl)phenoxy)-3-oxopropyl)-isoxazole-3-carboxylate]
- CC50 at 24 h (in vitro): 683 ± 30.4 µM
- IC50 ([1]; Enterovirus B): 9.1 ± 0.8 µM

Molecule: Cc1cc(CCC(=O)Oc2ccc(-c3noc(C(F)(F)F)n3)cc2C)on1 [Compound 12b, 2-Methyl-4-(5-(trifluoromethyl)-1,2,4-oxadiazol-3-yl)phenyl 3-(3-methylisoxazol-5-yl)propanoate]
- CC50 at 24 h (in vitro): 464 ± 30.3 µM
- IC50 ([1]; Enterovirus B): 13.1 ± 0.9 µM

Molecule: CCOC(=O)c1cc(CCC(=O)Nc2ccc(-c3noc(C(F)(F)F)n3)cc2C)on1 [Compound 20a, Ethyl 5-(3-((2-methyl-4-(5-(trifluoromethyl)-1,2,4-oxadiazol-3-yl)phenyl)amino)-3-oxopropyl)isoxa-zole-3-carboxylate]
- CC50 at 24 h (in vitro): 1720 ± 70.5 µM
- IC50 ([1]; Enterovirus B): 18.2 ± 1.6 µM

Molecule: Cc1cc(CCC(=O)Nc2ccc(-c3noc(C(F)(F)F)n3)cc2C)on1 [Compound 20b, N-(2-Methyl-4-(5-(trifluoromethyl)-1,2,4-oxadiazol-3-yl)phenyl)-3-(3-methylisoxazol-5-yl)propan-amide]
- CC50 at 24 h (in vitro): 1740 ± 120 µM
- IC50 ([1]; Enterovirus B): 76.2 ± 5.3 µM

Molecule: Cc1cc(-c2noc(C(F)(F)F)n2)ccc1NC(=O)CCc1cc(C(=O)N(C)C)no1 [Compound 21, N,N-dimethyl-5-(3-((2-methyl-4-(5-(trifluoromethyl)-1,2,4-oxadiazol-3-yl)phenyl)amino)-3-oxopro-pyl)isoxazole-3-carboxamide]
- CC50 at 24 h (in vitro): 1690 ± 70.7 µM
- IC50 ([1]; Enterovirus B): 6.8 µM

Molecule: Cc1cc(-c2noc(C(F)(F)F)n2)ccc1N1CCN(c2cc(C(=O)N(C)C)no2)CC1 [Compound 28a, N,N-Dimethyl-5-(4-(2-methyl-4-(5-(trifluoromethyl)-1,2,4-oxadiazol-3-yl)phenyl)piperazin-1-yl)iso-xazole-3-carboxamide]
- CC50 at 24 h (in vitro): 1870 ± 90.4 µM
- IC50 ([1]; Enterovirus B): 9.1 ± 0.7 µM

Molecule: Cc1cc(CN2CCN(c3ccc(-c4noc(C(F)(F)F)n4)cc3C)CC2)on1 [Compound 28b, 3-(3-Methyl-4-(4-((3-methylisoxazol-5-yl)methyl)piperazin-1-yl)phenyl)-5-(trifluoromethyl)-1,2,4-oxadiazole]
- CC50 at 24 h (in vitro): 2460 ± 171 µM
- IC50 ([1]; Enterovirus B): 41.7 ± 2.1 µM

Molecule: CCOC(=O)c1cc(N2CCN(c3ccc(-c4noc(C(F)(F)F)n4)cc3C)CC2)on1 [Compound 28c, Ethyl 5-(4-(2-methyl-4-(5-(trifluoromethyl)-1,2,4-oxadiazol-3-yl)phenyl)piperazin-1-yl)isoxazole-3-carboxylate]
- CC50 at 24 h (in vitro): ~53.2 µM
- IC50 ([1]; Enterovirus B): 48.7 ± 4.4 µM

Molecule: Cc1cc(-c2noc(C(F)(F)F)n2)ccc1N1CCN(C(=O)c2cc(-c3ccccc3)no2)CC1 [Compound 35a, (4-(2-Methyl-4-(5-(trifluoromethyl)-1,2,4-oxadiazol-3-yl)phenyl)piperazin-1-yl)(3-phenylisoxazol--5-yl)methanone]
- CC50 at 24 h (in vitro): 1520 ± 70.3 µM
- CC50 at 72 h (in vitro): 1450 ± 102 µM
- activity towards CVB3 (in words) [1]: inactive
- IC50 ([1]; Enterovirus B): > 620 µM
- activity against the influenza virus A (in words) [2]: inactive
- IC50 [2]: > 493 µM

Molecule: Cc1cc(-c2noc(C(F)(F)F)n2)ccc1N1CCN(C(=O)c2c(-c3ccccc3)noc2C)CC1 [Compound 35b, (5-Methyl-3-phenylisoxazol-4-yl)(4-(2-methyl-4-(5-(trifluoromethyl)-1,2,4-oxadiazol-3-yl)phenyl)pi-perazin-1-yl)methanone]
- CC50 at 24 h (in vitro): 2010 ± 121 µM
- CC50 at 72 h (in vitro): > 604 µM
- IC50 ([1]; Enterovirus B): 16.1 ± 1.1 µM
- activity against the influenza virus A (in words) [2]: inactive
- IC50 [2]: > 604 µM

Molecule: Cc1cc(CCCOc2c(C)cc(-c3noc(C(F)(F)F)n3)cc2C)on1 [Pleconaril]
- CC50 at 24 h (in vitro): 2400 ± 160 µM
- IC50 ([1]; Enterovirus B): 18.4 ± 1.5 µM

Molecule: Methyl 5-(4-(2-methyl-4-(5-(trifluoromethyl)-1,2,4-oxadiazol-3-yl)phenyl)piperazin-1-yl)-isoxazole--3-carboxylate [Compound 28d]
- IC50 [1]: 3.9 ± 0.3 µM
